Assay results from US7887833B2, “Amphiphilic compounds and vesicles liposomes for organ-specified drug targeting” (Ben-Gurion University of the Negev Research and Development …, priority 2001, dated 2011).

Assays:
Assay type in all cases: biochemical
cholinesterases (ChE) = assay: pH-stat method: hydrolysis of headgroups by cholinesterases of human serum; conditions: 100 mM solutions diluted 100 times, pH 9.0, human serum 0.1 ml, 15 min
Method: The ability of cholinesterases (ChE) to hydrolyze Derivatives 1 and 2 was assessed using two methods:
(i) The pH-stat method: Hydrolysis of the acetylcholine ester headgroups of Derivative 1, as well as of acetylcholine (ACh), by cholinesterases (ChE), releases acetic acid into the solution. Hydrolysis of Derivative 2 by ChE releases choline and a free fatty acid. In both cases, the release of acid results in pH drop. The hydrolysis rate of these compounds can be determined by measuring the amount of NaOH needed to neutralize the acid generated during hydrolysis. Three solutions, 100 mM concentration each of acetylcholine (ACh) in water and of Derivatives 1 and 2 in methanol were prepared, then diluted 100 times with water (10 ml), and their pH was adjusted to pH 9.0 using 0.1M NaOH. The pH was monitored until it remained stable for 10 min (baseline). At this stage, human serum (0.1 ml) containing ChE, was added and each of the solutions was titrated with 0.05M NaOH in order to maintain pH 9.0. The amount of the NaOH needed to maintain constant pH was measured during 15 min. […] Thus vesicles prepared from Derivative 1 are expected to disrupt, in presence of ChE, faster than vesicles made from Derivative 2.

[1] = test system: acetylcholinesterase (ACHE); assay: Competition assay using the Elman's method (acetylthiocholine/DTNB); conditions: acetylthiocholine 1.5 mM, DTNB 0.5 mM, 3 units AChE, phosphate-buffered saline
Method: (ii) Competition assay using the Elman's method: Hydrolysis of acetylthiocholine (ATC) releases thiocholine, which reduces 5,5′-dithiobis-2-nitrobenzoate (DTNB) giving rise to a yellow coloring of the solution. […] A series of solutions with varying concentrations of Derivatives 1 and 2 in methanol together with acetylthiocholine (1.5 mM), DTNB (0.5 mM), and with 3 units of acetylcholinesterase (ACHE) in phosphate-buffered saline, was prepared. The rate of appearance of yellow color was determined in each of the reaction mixtures. […] Thus, vesicles prepared from Derivative 1 are expected to disrupt faster than vesicles prepared from Derivative 2, when exposed to cholinesterases.

[2] = target: T1, aromatic L-amino acid decarboxylase (AADC) (Rattus norvegicus, UniProt P14173); assay: Decarboxylation of headgroup by AADC from rat liver homogenate (HPLC, electrochemical detector)
T1 construct: rat liver homogenate served as the source for AADC; from tissue; host or cells: rat liver homogenate
T1 sequence (P14173 1-480): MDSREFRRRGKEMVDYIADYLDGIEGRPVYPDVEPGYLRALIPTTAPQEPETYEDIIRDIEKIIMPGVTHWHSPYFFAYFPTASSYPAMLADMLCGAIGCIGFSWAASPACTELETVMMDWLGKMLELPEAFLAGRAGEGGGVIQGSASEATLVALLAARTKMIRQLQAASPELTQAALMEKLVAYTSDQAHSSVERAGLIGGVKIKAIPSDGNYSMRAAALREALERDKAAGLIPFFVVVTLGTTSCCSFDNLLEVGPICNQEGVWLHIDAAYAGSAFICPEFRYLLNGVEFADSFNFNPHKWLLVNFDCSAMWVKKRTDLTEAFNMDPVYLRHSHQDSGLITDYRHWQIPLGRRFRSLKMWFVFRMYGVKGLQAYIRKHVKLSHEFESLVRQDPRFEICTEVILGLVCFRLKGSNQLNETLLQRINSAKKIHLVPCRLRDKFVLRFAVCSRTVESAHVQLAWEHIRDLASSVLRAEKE
Text: Derivative 5 contains an aromatic amino acid moiety as a headgroup. This negatively charged headgroup, at physiological pH, may be a suitable substrate for the enzyme aromatic L-amino acid decarboxylase (AADC). Upon exposure to AADC, the headgroup of Derivative 5 should be converted to an amine thus changing the nature of the headgroup (from a carboxyl to amine) in a way that can result in destabilization of vesicles made from Derivative 5.
To test whether Derivative 5 could serve as a substrate for AADC, rat liver homogenate served as the source for AADC and the following experiment was carried out. A methanol solution (0.005 ml) of Derivative 5 was added to a reaction mixture (0.5 ml final volume) containing potassium phosphate (50 mM, pH=7.0), dithiothreitol (1 mM), EDTA (0.2 mM), pyridoxal 5′-phosphate (0.01 mM), pargylin (0.1 mM), and rat liver homogenate adjusted to 5 mg protein. The final concentration of Derivative 5 was 1 mM. The reaction mixture was incubated at 37° C. for 60 min followed by the addition of 0.05 ml perchloric acid (70%) and neutralized by 4M KOH. The mixture was then centrifuged at 20.000 g for 10 min at 4° C. and 0.1 ml of the supernatant was injected into a C18-HPLC column. The presence of the amine, which was formed during the reaction, was determined by electrochemical detector. […]

CCCCCC(OC(=O)C[N+](C)(C)CCOC(C)=O)C(O)CC=CCCCCCCCC(=O)NCCNC(=O)CCCCCCCC=CCC(O)C(CCCCC)OC(=O)C[N+](C)(C)CCOC(C)=O (stereo not shown) [Derivative 1]
hydrolysis rate (NaOH needed to maintain constant pH) (cholinesterases (ChE)): faster hydrolysis | competition with acetylthiocholine for the hydrolyzing enzyme (rate of appearance of yellow color) [1]: higher extent

CCCCCC(OC(=O)CNc1ccc(CC(N)C(=O)O)cc1)C(O)CC=CCCCCCCCC(=O)NCCNC(=O)CCCCCCCC=CCC(O)C(CCCCC)OC(=O)CNc1ccc(CC(N)C(=O)O)cc1 (stereo not shown) [Derivative 5]
decarboxylation to the amine (HPLC peak) ([2]; 1 mM, rat liver homogenate 5 mg protein, 37° C., 60 min): decarboxylated | amine peak in presence of benserazide ([2]; benserazide 5×10^-5 M added to the reaction mixture): not detectable
